From PMC4154066 (Chemical research in toxicology, 2013)
Where two headings read alike, the source gives them in different places.

Assays:
HepG2 cells [1] = assay: Oxygen consumption rate; format: cell-based, Human; settings: for Relative percentage OCR 30 Sec: HepG2, 30 sec after compound at its MMP IC50; for Relative percentage OCR 30 Sec / Relative percentage OCR 1 h: basal OCR = 100%, mean ± SD; for Relative percentage OCR 1 h: HepG2, 1 h after compound at its MMP IC50
HepG2 cells [2] = assay: cells; format: cell-based, Human; settings: for IC50: Homo sapiens

| Structure (SMILES) | Relative percentage OCR 30 Sec (HepG2 cells [1]) | Relative percentage OCR 1 h (HepG2 cells [1]) | also measured |
| --- | --- | --- | --- |
| CC/C(=C(/CC)c1ccc(O)cc1)c1ccc(O)cc1 [Diethylstilbestrol [DES], Diethylstilbestrol, reference compound] |  |  | Effect on OCR / FCCP-uncoupled OCR (in words) (HepG2 cells [1]): depressed both basal and FCCP uncoupled rates |
| Nc1cccc2c(N)cccc12 [1,5-Naphthalenediamine] | 104.68 ± 1.3% | 115.87 ± 0.7% |  |
| O=C1C2(Cl)C3(Cl)C4(Cl)C(Cl)(Cl)C5(Cl)C3(Cl)C1(Cl)C5(Cl)C24Cl (stereo not drawn) [Kepone] | 139.53 ± 5.8% | 140.71 ± 0.96% | IC50 (HepG2 cells [2]; HepG2, 1 h, read-out: Compound potency (IC50) LDH Release 1 h): 49.1 ± 12.3 µM; IC50 (HepG2 cells [2]; HepG2, 5 h, read-out: Compound potency (IC50) LDH Release 5 h): 58.4 ± 3.95 µM |
| O=C1C2CC=CCC2C(=O)N1SC(Cl)(Cl)Cl (stereo not drawn) [Captan] | 110.37 ± 7.97% | 128.41 ± 0.77% |  |
| Clc1ccc(C(c2ccccc2Cl)C(Cl)Cl)cc1 (stereo not drawn) [o,p'-DDD (Mitotane), 1,1-dichloro-2-(o-chlorophenyl)-2-(p-chlorophenyl) ethane, reference compound] | 102.84 ± 1.36% | 114.22 ± 0.42% |  |
| O=C(Nc1ccccc1)Nc1ccccc1 [Diphenylurea] | 97.02 ± 4.18% | 143.97 ± 1.85% |  |
| O=C=Nc1ccc(Cl)c(Cl)c1 [3,4-Dichlorophenyl isocyanate] | 102.45 ± 10.76% | 236.03 ± 4.84% |  |
| Cc1cc(O)c(C(C)(C)C)cc1Sc1cc(C(C)(C)C)c(O)cc1C [4,4-Thiobis(6-t-butyl-m-cresol)] | 106.32 ± 4% | 127.15 ± 1.52% | Compound potency (IC50) LDH Release 1 h (HepG2 cells [2]; HepG2, 1 h treatment, mean ± SD, 3 independent experiments): Inactive; Compound potency (IC50) LDH Release 5 h (HepG2 cells [2]; HepG2, 5 h treatment, mean ± SD, 3 independent experiments): Inconclusive |
| Nc1ccc(O)cc1 [p-Aminophenol] | 100.52 ± 5.81% | 158.18 ± 3.31% |  |
| CCCCCCCCCc1ccc(O)cc1 [p -n -Nonylphenol] | 116.61 ± 6.28% | 131.32 ± 0.61% |  |
| Oc1c(Cl)cc(Cl)c(Cl)c1Cc1c(O)c(Cl)cc(Cl)c1Cl [Hexachlorophene] | 201.72 ± 51.19% | 175.25 ± 1.35% |  |
| O=c1c(-c2ccc(O)cc2)coc2cc(O)cc(O)c12 [Genistein (4',5,7-Trihydroxyisoflavone), 4',5,7-Trihydroxyisoflavone] | 90.18 ± 3.05% | 105.21 ± 0.19% |  |
| Nc1ccc2c(c1)C(=O)c1ccccc1C2=O [2-Aminoanthraquinone] | 97.54 ± 0.63% | 106.44 ± 0.61% |  |
| CC(C)(c1ccccc1)c1ccc(O)cc1 [4-Cumylphenol] | 111.24 ± 4.51% | 121.31 ± 0.33% |  |
| CC(=O)Oc1ccccc1C(=O)Nc1ncc([N+](=O)[O-])s1 [Nitazoxanide, reference compound] | 277.15 ± 15.64% | 199.34 ± 2.37% |  |
| Cc1cc2nc3c(=O)[nH]c(=O)nc-3n(C[C@H](O)[C@H](O)[C@H](O)CO)c2cc1C [Riboflavin] | 103.69 ± 0.37% | 115.15 ± 0.4% |  |
| CN(C)c1ccc(N=NS(=O)(=O)O)cc1 [Formulated fenaminosulf (Dexon), fenaminosulf] | 102.48 ± 0.9% | 110.45 ± 0.28% |  |
| C[C@H]1CCCC(=O)CCC/C=C/c2cc(O)cc(O)c2C(=O)O1 [Zearalenone] | 77.68 ± 2.39% | 109.62 ± 0.57% | Effect on OCR / FCCP-uncoupled OCR (in words) (HepG2 cells [1]; HepG2, compound at its MMP IC50, 30 sec and 1 h, then FCCP): depressed both basal and FCCP uncoupled rates |
| c1ccc(Nc2ccc3ccccc3c2)cc1 [N-Phenyl-2-naphthylamine] | 103.45 ± 2.35% | 120.42 ± 0.94% |  |
